SMILES strings stand for the structures.

The target of this assay is T1, human S1P1 receptor (Homo sapiens, UniProt P21453).
T1 construct: expressed in transfected cells; membranes used
Put plainly: GTP γ35S binding assay for S1P1 activity. The class given is biochemical. To be noted: for Emax at 5 µM: intrinsic activity at 5 μM, read-out: % S1P1 STIMULATION @ 5 μM; for EC50: membranes of cells stably expressing S1P1, test concentrations 0.08 to 5,000 nM, read-out: S1P1 GTPγ^35S EC50. The procedure:
Novel compounds were synthesized and tested for S1P1 activity using the GTP γ^35S binding assay. These compounds may be assessed for their ability to activate or block activation of the human S1P1 receptor in cells stably expressing the S1P1 receptor. GTP γ^35S binding was measured in the medium containing (mM) HEPES 25, pH 7.4, MgCl2 10, NaCl 100, dithitothreitol 0.5, digitonin 0.003%, 0.2 nM GTP γ^35S, and 5 μg membrane protein in a volume of 150 μl. Test compounds were included in the concentration range from 0.08 to 5,000 nM unless indicated otherwise. Membranes were incubated with 100 μM 5′-adenylylimmidodiphosphate for 30 min, and subsequently with 10 μM GDP for 10 min on ice. Drug solutions and membrane were mixed, and then reactions were initiated by adding GTP γ^35S and continued for 30 min at 25° C. Reaction mixtures were filtered over Whatman GF/B filters under vacuum, and washed three times with 3 mL of ice-cold buffer (HEPES 25, pH7.4, MgCl2 10 and NaCl 100). Filters were dried and mixed with scintillant, and counted for ^35S activity using a β-counter. Agonist-induced GTP γ^35S binding was obtained by subtracting that in the absence of agonist. Binding data were analyzed using a non-linear regression method. In case of antagonist assay, the reaction mixture contained 10 nM S1P in the presence of test antagonist at concentrations ranging from 0.08 to 5000 nM.
(GTPγS is a poorly hydrolysed GTP analogue; its binding reports G protein activation.)

T1 sequence (P21453 whole entry): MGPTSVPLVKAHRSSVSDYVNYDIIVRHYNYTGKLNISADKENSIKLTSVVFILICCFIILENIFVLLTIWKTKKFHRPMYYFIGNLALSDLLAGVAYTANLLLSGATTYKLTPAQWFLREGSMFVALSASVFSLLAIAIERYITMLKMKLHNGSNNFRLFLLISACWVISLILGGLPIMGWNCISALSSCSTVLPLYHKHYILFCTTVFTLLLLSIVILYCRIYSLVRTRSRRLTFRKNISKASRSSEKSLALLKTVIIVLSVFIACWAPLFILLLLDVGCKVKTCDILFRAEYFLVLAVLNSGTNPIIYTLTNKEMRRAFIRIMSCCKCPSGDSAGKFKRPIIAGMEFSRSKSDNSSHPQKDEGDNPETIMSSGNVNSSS

With `CC(C)Oc1ccc(-c2nc(-c3ccc(Cn4ccnc4)cc3)no2)cc1C#N` [Compound 12, 5-[3-(4-Imidazol-1-ylmethyl-phenyl)-[1,2,4]oxadiazol-5-yl]-2-isopropoxy-benzonitrile], the Emax at 5 µM was 94.6% and the concentration for a half-maximal effect (EC50) amounted to 3.31 nM.
Regarding `Cc1cc(Cn2ccnc2)ccc1-c1noc(-c2ccc(OC(C)C)c(C#N)c2)n1` [Compound 13, 5-[3-(4-Imidazol-1-ylmethyl-2-methyl-phenyl)-[1,2,4]oxadiazol-5-yl]-2-isopropoxy-benzonitrile], the Emax at 5 µM came to 96.4% and the EC50 was 4.76 nM.
The like results for `CC(C)Oc1ccc(-c2nc(-c3ccc(Cn4ccnc4)cc3)no2)cc1Br` [Compound 14, 5-(3-Bromo-4-isopropoxy-phenyl)-3-(4-imidazol-1-ylmethyl-phenyl)-[1,2,4]oxadiazole] were, in that order, 93.9% and 0.92 nM.
For `Cc1cc(Cn2ccnc2)ccc1-c1noc(-c2ccc(OC(C)C)c(Br)c2)n1` [Compound 15, 5-(3-Bromo-4-isopropoxy-phenyl)-3-(4-imidazol-1-ylmethyl-2-methyl-phenyl)-[1,2,4]oxadiazole], the Emax at 5 µM came to 109% and the EC50 was found to be 19.6 nM.
Taken in the same sequence, the figures for `CC(C)Oc1ccc(-c2nc(-c3ccc(Cn4ccnc4)cc3)no2)cc1Cl` [Compound 16, 5-(3-Chloro-4-isopropoxy-phenyl)-3-(4-imidazol-1-ylmethyl-phenyl)-[1,2,4]oxadiazole] were 99.8% and 2.79 nM.
The like results for `Cc1cc(-c2nc(-c3ccc(Cn4ccnc4)cc3)no2)ccc1OC(C)C` [Compound 17, 3-(4-Imidazol-1-ylmethyl-phenyl)-5-(4-isopropoxy-3-methyl-phenyl)-[1,2,4]oxadiazole] were, in that order, 133% and 10.3 nM.
Taken in the same sequence, the figures for `Cc1cc(-c2nc(-c3ccc(Cn4ccnc4)cc3C)no2)ccc1OC(C)C` [Compound 18, 3-(4-Imidazol-1-ylmethyl-2-methyl-phenyl)-5-(4-isopropoxy-3-methyl-phenyl)-[1,2,4]oxadiazole] were 94.6% and 19.8 nM.
`Cc1cc(Cn2ccnc2)ccc1-c1noc(-c2ccc(OC(C)C)c([N+](=O)[O-])c2)n1` [Compound 19, 3-(4-Imidazol-1-ylmethyl-2-methyl-phenyl)-5-(4-isopropoxy-3-nitro-phenyl)-[1,2,4]oxadiazole]: the Emax at 5 µM was 102% and the 50% effective concentration (EC50) was found to be 8.98 nM.

The EC50 is the concentration giving half of the maximal effect.

These data come from patent US8440698B2, “3-(4-((1H-imidazol-1-yl)methyl)phenyl)-5-aryl-1,2,4-oxadiazole derivatives as sphingosine-1 phosphate receptors modulators” (Allergan, Inc., priority 2010, dated 2013).
